Results published in ChEMBL document CHEMBL1158949, “Plant metabolites. New compounds and anti-inflammatory activity of Uncaria tomentosa” (1991).
Calls of active or inactive are those of the source. The calls are words filed in the database; no cut-off is given here.

Tests used:
Rattus norvegicus [1] = test: Inhibition of carrageenan-induced edema in Wistar rat paw at 0.04 mg/kg to 0.51 mg/kg, po; type: functional, organism-based
Rattus norvegicus [2] = test: Inhibition of carrageenan-induced edema in Wistar rat paw at 20 mg/kg, po after 3 hrs; type: functional
Rattus norvegicus [3] = test: Inhibition of carrageenan-induced edema in po dosed Wistar rat paw; type: functional
Rattus norvegicus [4] = test: Inhibition of carrageenan-induced edema in Wistar rat paw at 5 mg/kg, po; type: functional, organism-based; design: dose 5 mg/kg

SMILES | Activity (Rattus norvegicus [1]) | other results
C[C@H]1[C@H](C)CC[C@]2(C(=O)O[C@@H]3O[C@H](CO)[C@@H](O)[C@H](O)[C@H]3O)CC[C@]3(C(=O)O)C(=CC[C@@H]4[C@@]5(C)CC[C@H](O[C@@H]6O[C@H](C)[C@@H](O)[C@H](O)[C@H]6O)C(C)(C)[C@@H]5CC[C@]43C)[C@H]12 | inactive | –
C[C@H]1[C@H](C)CC[C@]2(C(=O)O)CC[C@]3(C(=O)O[C@@H]4O[C@H](CO)[C@@H](O)[C@H](O)[C@H]4O)C(=CC[C@@H]4[C@@]5(C)CC[C@H](O[C@@H]6O[C@H](C)[C@H](O)[C@H](O[C@@H]7O[C@H](CO)[C@@H](O)[C@H](O)[C@H]7O)[C@H]6O)C(C)(C)[C@@H]5CC[C@]43C)[C@H]12 | inactive | –
C[C@H]1[C@H](C)CC[C@]2(C(=O)O)CC[C@]3(C(=O)O)C(=CC[C@@H]4[C@@]5(C)CC[C@H](O[C@@H]6O[C@H](C)[C@H](O)[C@H](O[C@@H]7O[C@H](CO)[C@@H](O)[C@H](O)[C@H]7O)[C@H]6O)C(C)(C)[C@@H]5CC[C@]43C)[C@H]12 | inactive | –
C=C[C@H]1[C@H](O[C@@H]2O[C@H](CO)[C@@H](O)[C@H](O)[C@H]2O)OC=C(C(=O)OC)[C@H]1C[C@@H]1N[C@@H](C(=O)O)Cc2c1[nH]c1ccccc21 | inactive | –
CC1(C)CC[C@]2(C(=O)O)CC[C@]3(C)C(=CC[C@@H]4[C@@]5(C)CC[C@H](O)C(C)(C)[C@@H]5CC[C@]43C)[C@@H]2C1 | inactive | Activity (Rattus norvegicus [2]): inactive
COC(=O)[C@]12CC[C@@H](C)[C@@](C)(O)[C@H]1C1=CC[C@@H]3[C@@]4(C)CC[C@H](O)[C@@](C)(C(=O)OC)[C@@H]4[C@H](O)C[C@@]3(C)[C@]1(C)CC2 | inactive | –
C[C@H]1[C@H](C)CC[C@]2(C(=O)O[C@@H]3O[C@H](CO)[C@@H](O)[C@H](O)[C@H]3O)CC[C@]3(C(=O)O)C(=CC[C@@H]4[C@@]5(C)CC[C@H](O[C@@H]6O[C@H](C)[C@H](O)[C@H](O[C@@H]7O[C@H](CO)[C@@H](O)[C@H](O)[C@H]7O)[C@H]6O)C(C)(C)[C@@H]5CC[C@]43C)[C@H]12 | inactive | –
C[C@H]1[C@H](C)CC[C@]2(C(=O)O)CC[C@]3(C(=O)O[C@@H]4O[C@H](CO)[C@@H](O)[C@H](O)[C@H]4O)C(=CC[C@@H]4[C@@]5(C)CC[C@H](O[C@@H]6O[C@H](C)[C@@H](O)[C@H](O)[C@H]6O)C(C)(C)[C@@H]5CC[C@]43C)[C@H]12 | inactive | Activity (Rattus norvegicus [2]): 33%
COc1ccc2c(c1)c(CC(=O)O)c(C)n2C(=O)c1ccc(Cl)cc1 [INDOMETHACIN] | – | ED50 (Rattus norvegicus [3]): 0.014 mmol; Activity (Rattus norvegicus [4]): Active
C[C@H]1[C@H](C)CC[C@]2(C(=O)O)CC[C@]3(C)C(=CC[C@@H]4[C@@]5(C)CC[C@H](O)C(C)(C)[C@@H]5CC[C@]43C)[C@H]12 | inactive | –
C[C@@H]1CC[C@]2(C(=O)O)CC[C@]3(C)C(=CC[C@@H]4[C@@]5(C)CC[C@H](O)C(C)(C)[C@@H]5[C@H](O)C[C@]43C)[C@@H]2[C@]1(C)O | inactive | Activity (Rattus norvegicus [2]): inactive
C[C@H]1[C@H](C)CC[C@]2(C(=O)O[C@@H]3O[C@H](CO)[C@@H](O)[C@H](O)[C@H]3O)CC[C@]3(C(=O)O)C(=CC[C@@H]4[C@@]5(C)CC[C@H](O[C@@H]6O[C@H](C)[C@H](O)[C@H](O)[C@H]6O)C(C)(C)[C@@H]5CC[C@]43C)[C@H]12 | inactive | –
C[C@H]1[C@H](C)CC[C@]2(C(=O)O)CC[C@]3(C(=O)O[C@@H]4O[C@H](CO)[C@@H](O)[C@H](O)[C@H]4O)C(=CC[C@@H]4[C@@]5(C)CC[C@H](O[C@@H]6O[C@H](C)[C@H](O)[C@H](O)[C@H]6O)C(C)(C)[C@@H]5CC[C@]43C)[C@H]12 | inactive | –
